Experimental data: the NIST ThermoML archive (doi:10.1016/j.jct.2012.11.026)

Key:
[1] = Solid-liquid equilibrium temperature; details: Crystal, visual observation
[2] = Liquid-liquid equilibrium temperature; details: Nematic liquid crystal, visual observation

CCCCCOc1ccc(-c2ccc(C#N)cc2)cc1 [4'-pentoxy-4-cyanobiphenyl]
Details	Liquid-liquid equilibrium temperature, [2] [K]	Solid-liquid equilibrium temperature, [1] [K]
399 kPa	341.58	326.84
1399 kPa	341.96	327.21
2400 kPa	342.38	327.52
3001 kPa	–	327.72
3400 kPa	–	327.86
3401 kPa	342.75	–
3901 kPa	342.91	–
4401 kPa	343.13	328.2
4902 kPa	343.32	–
5401 kPa	–	328.54
5402 kPa	343.51	–
6402 kPa	–	328.84
6403 kPa	343.9	–
7403 kPa	–	329.23
7404 kPa	344.3	–
8403 kPa	–	329.55
8404 kPa	344.7	–
9405 kPa	345.1	329.86
10005 kPa	345.33	330.08
